Results as given in ChEMBL document CHEMBL1201862, “PubChem BioAssay data set” (2004).
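Dose response: 5 concentrations. Exposure: 48 h. Format: 96-well plates. Endpoint: linear interpolation; highest concentration if not reached. Abbreviation: GI50, concentration required for 50% inhibition of growth.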 Calls of active or inactive are those of the source. Rule as the data show it: active = GI50 up to about 1.1 µM and inactive = higher.

Key:
Experiment in all cases: NCI anticancer screen, dose series, 48 h
[1] = system: A498
[2] = system: EKVX
[3] = system: HOP-62
[4] = system: IGROV-1
[5] = system: LOX IMVI
[6] = system: MDA-MB-435
[7] = system: NCI-H226
[8] = system: OVCAR-3
[9] = system: OVCAR-5
[10] = system: SF-268
[11] = system: SK-MEL-2
[12] = system: SN12C
[13] = system: SNB-19
[14] = system: SNB-75
[15] = system: T47D
[16] = system: TK-10
[17] = system: U-251
[18] = system: CCRF-CEM

Measured: GI50

O=C1CC2C(=O)c3ccccc3CC2c2ccccc21 (stereo not drawn)
inactive: [1] 48.8 µM | [2] 46.1 µM | [3] > 100 µM | [4] 27 µM | [5] 38.5 µM | [6] 24.1 µM | [7] 36.6 µM | [8] 26.7 µM | [9] > 100 µM | [10] 56.8 µM | [11] 87.1 µM | [12] 55.3 µM | [13] > 100 µM | [14] 6.49 µM | [15] 49.2 µM | [16] 87.9 µM | [17] 57.4 µM

O=CNc1ncn[nH]1
inactive: [1] > 100 µM | [18] > 100 µM | [2] > 100 µM | [3] > 100 µM | [4] > 100 µM | [5] > 100 µM | [6] > 100 µM | [7] > 100 µM | [8] > 100 µM | [9] > 100 µM | [10] > 100 µM | [11] > 100 µM | [12] > 100 µM | [13] > 100 µM | [14] > 100 µM | [15] > 100 µM | [16] > 100 µM | [17] > 100 µM

CC(C)=C1C(=O)c2c(Cl)sc(Cl)c2C1=O
inactive: [1] > 100 µM | [18] 26.1 µM | [2] 27.7 µM | [3] 42.4 µM | [4] 21.9 µM | [5] 18.2 µM | [6] 18.6 µM | [7] 35.6 µM | [8] 29.3 µM | [9] > 100 µM | [10] 30.2 µM | [11] 20 µM | [12] 20.7 µM | [14] 18.4 µM | [15] 31 µM | [16] 32.5 µM | [17] 22.2 µM

COc1cc(NCC2COc3c(ccc(OC)c3OC)C2=O)c([N+](=O)[O-])cc1OC (stereo not drawn)
inactive: [1] > 100 µM | [18] 53.2 µM | [2] 95.1 µM | [3] > 100 µM | [4] > 100 µM | [5] > 100 µM | [6] > 100 µM | [7] > 100 µM | [8] > 100 µM | [9] > 100 µM | [10] 67.3 µM | [11] > 100 µM | [12] 70.1 µM | [13] > 100 µM | [14] 60.1 µM | [15] 26.1 µM | [16] > 100 µM | [17] > 100 µM

Nc1ncnc2c1ncn2[C@@H]1O[C@H](C(=O)O)[C@@H](O)[C@H]1O [5'-CARBOXY ADENOSINE]
inactive: [1] > 100 µM | [18] > 100 µM | [2] > 100 µM | [3] > 100 µM | [4] > 100 µM | [5] > 100 µM | [6] > 100 µM | [7] > 100 µM | [8] > 100 µM | [9] > 100 µM | [10] > 100 µM | [11] > 100 µM | [12] > 100 µM | [13] > 100 µM | [14] > 100 µM | [15] > 100 µM | [16] > 100 µM | [17] > 100 µM

NC1=C(N2CCCCC2)C(=O)NC2=N/C(=C\c3ccco3)C(=O)N21
inactive: [1] > 100 µM | [18] > 100 µM | [2] > 100 µM | [4] > 100 µM | [5] > 100 µM | [6] > 100 µM | [7] > 100 µM | [9] > 100 µM | [10] > 100 µM | [12] > 100 µM | [13] > 100 µM | [14] > 100 µM | [15] > 100 µM | [16] > 100 µM | [17] > 100 µM
